In patent US20100158829A1, “Method and Composition for Color Modulation” (Conopco, Inc., d/b/a UNILEVER, priority 2008, published 2010):

How the values were obtained:
[1] = tested on: mushroom tyrosinase; test: Mushroom tyrosinase assay with L-dopa; assay type: biochemical; details: for Mushroom Tyrosinase at 100 μM (% of control): test compound 100 μM, percent of untreated control reaction
Protocol: A stock solution of 10 mM L-dopa (3,4-Dihydroxyphenylalanine, Sigma Cat #D9628) was prepared in sodium phosphate buffer (100 mM, pH 7.0) along with a stock solution of 0.1 mg/mL (605 units/ml) mushroom tyrosinase (Sigma cat #T7755) in phosphate buffer and stored at […] 4° C. until use.
Test compounds (dissolved in DMSO) were first diluted in phosphate buffer to working concentrations of 1 mM. For each test, 150 μL of phosphate buffer, 10 μL of the L-dopa stock and 20 μL of each compound were added to each well of a 96 well clear bottom microtiter plate and mixed three times. 20 μL of mushroom tyrosinase stock solution was added, mixed and the absorbency read at 475 nm at 0, 2, 4, and 6.5 minutes. The points were plotted as absorbency vs. time and the slope of the line calculated. Values are expressed as the percent of the respective untreated control reaction. The final DMSO concentration in each sample was less than or equal to 1.0%

[2] = target: D-dopachrome tautomerase (Homo sapiens, UniProt P30046); test: D-dopachrome tautomerase (DDT) enzyme assay with D-dopachrome substrate; assay type: biochemical; details: for D-Dopachrome Tautomerase at 100 μM (% of control): test compound 100 μM, remaining activity, 100% = inactive; for IC50: DDT assays similar to those described in Example 2
Chain of D-dopachrome tautomerase (P30046 2-118 limits assumed): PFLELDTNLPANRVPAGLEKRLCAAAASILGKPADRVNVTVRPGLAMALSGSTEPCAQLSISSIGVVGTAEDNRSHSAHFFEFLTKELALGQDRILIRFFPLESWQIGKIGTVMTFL
Protocol: A 125-mM sodium periodate working solution was prepared in H2O in an amber 5-mL vial (prepared fresh on the day of the assay). 4.3 mg of dihydroxy-D-phenylalanine (D-dopa) were weighed into a 20 mL scintillation vial equipped with a pierceable septa screw cap. With the use of a liquid transfer cannula, 12 mL of degassed buffer was first transferred into a 15 mL graduated conical tube and subsequently poured into the scintillation vial containing the D-dopa. The D-dopa was dissolved for ten (10) minutes while stirring under nitrogen. The resulting working solution was 1.8 mM. Once sodium periodate was added to the dissolved D-dopa, the resulting D-dopachrome was utilized immediately to prevent substrate degradation.
Concentrations were based on a final reaction volume of 200 μL. A total of 75 μL of buffer (100 mM potassium phosphate, pH 6.8) was added to each well of a clear flat bottom 96-well microtiter plate. To the blank control wells (no DDT), 25 μL of 10% glycerol/assay buffer was added. DMSO (5 μL) was added to blank wells and to the enzyme control wells (DDT alone with no inhibitors). […] To the remaining wells, 5 μL of test compounds diluted in DMSO was added for a final concentration of 100 μM. Lastly, 25 μL of DDT in assay buffer was added to all wells except for the substrate control wells. The concentration of DDT utilized was such that it produced a ΔOD475 of approximately 1.0 at the 40-second read time point between the blank and total.
With the use of a 1 mL syringe, 0.33 ml of the 125 mM sodium periodate working solution was added to the dissolved D-dopa and stirred for 30 seconds. The resulting D-dopachrome was transferred to a reagent reservoir and 100 μL immediately added to the first row of interest in the assay plate (resulting final substrate concentration in the assay is 0.9 mM). The plate was shaken for 2 seconds on a Spectromax plate reader and the decrease in absorbance measured over 40 seconds. 100 μL of D-dopachrome was added to the next row of interest in the assay plate and this procedure was repeated until four (4) rows were assayed and read. Often approximately 6-7 minutes, the remaining substrate was discarded.
Percent inhibition was calculated utilizing the OD values at the 40-second time point according to the following formula:
• A=percent inhibition of the unknown; • B=average percent inhibition for the 4 positive control values (within 4 distinct assay rows) generated with a single batch of substrate also used to assay the unknown of interest; • C=percent inhibition for the positive control for the assay row of interest which contains the unknown compound of interest.

[3] = tested on: Melanoderm tissue equivalent model MEL-300 containing melanocytes; test: Melanoderm tissue equivalent model, total melanin content; assay type: cell-based; details: 10 μM in maintenance medium, 14 days
Protocol: Melanoderm™ tissue equivalent model MEL-300 (MatTek: Ashland, Mass.) containing melanocytes obtained from dark skin individuals were cultured as per supplier instructions. Components were added to the maintenance medium phase (no topical treatments) at a final concentration of 10 μM for 14 days at which time the experiment was terminated and the tissues assessed for melanin content. Medium and treatments were changed three times per week. DMSO was utilized as the vehicle control and all treatments were performed in duplicate.
For quantification of total melanin, each Melanoderm was placed into an individual Eppendorf tube (2 mL) into which 250 μL of Solvable™ tissue solubilizer (Packard Bioscience Co., Cat#6NE9100) was added. Each tube was vortexed and incubated at 60° C. for 18 hours. After about […], each sample was centrifuged (5-minutes at 13,000 RPMs) to remove any particulates. One hundred μL of supernatant were transferred to a 96 well microtiter plate and the absorbance read at 490 nm. Total melanin content was calculated from a standard curve using synthetic melanin (Sigma Cat#M8631).
All the following components were tested at a final concentration of 10 μM: […]

[4] = tested on: mushroom tyrosinase; test: Mushroom tyrosinase assay with L-dopa; assay type: biochemical; details: Tested at 1 μM

Compound	Mushroom Tyrosinase at 100 μM (% of control) [1]	D-Dopachrome Tautomerase at 100 μM (% of control) [2]	also measured
CNC(=O)c1ccccc1NC(=O)c1c(O)nc2c(c1O)CCCC2 [N-(2-(methylcarbamoyl)phenyl)-5,6,7,8-tetrahydro-2,4-dihydroxyquinoline-3-carboxamide]	100.0% of control	65.3% of control	
sodium isostearoyl lactylate			Reduction in Melanin [3]: 6.2%; IC50 [2]: 14.6 µM
O=c1c(O)c(-c2ccc(O)cc2O)oc2cc(O)cc(O)c12 [Morin, 2-(2,4-dihydroxyphenyl)-3,5,7-4H-1-benzopyran-4-one]			Reduction in Melanin [3]: 7.2%; IC50 [2]: 27.4 µM
CC(C)(C)NC(=O)C(c1ccc(F)cc1)N(C(=O)c1snc(C(N)=O)c1N)c1cccc(F)c1 (stereo not drawn) [N5-((tert-butylcarbamoyl)(4-fluorophenyl)methyl)-4-amino-N5-(3-fluorophenyl)isothiazole-3,5-dicarboxamide]	106.1% of control	48.0% of control	
CC(C)CC(C(=O)NC1CCCC1)N(C(=O)c1snc(C(N)=O)c1N)c1ccc(F)cc1 (stereo not drawn) [N5-(1-(cyclopentylcarbamoyl)-3-methylbutyl)-4-amino-N5-(4-fluorophenyl)isothiazole-3,5-dicarboxamide]	100.6% of control	65.7% of control	
CC(C)CC(C(=O)NC1CCCC1)N(C(=O)c1snc(C(N)=O)c1N)c1ccccc1 (stereo not drawn) [N5-(1-(cyclopentylcarbamoyl)-3-methylbutyl)-4-amino-N5-phenylisothiazole-3,5-dicarboxamide]	89.4% of control	69.2% of control	
NC(=O)c1nsc(C(=O)N(c2ccccc2)C(C(=O)NC2CCCC2)c2cccs2)c1N (stereo not drawn) [N5-((cyclopentylcarbamoyl)(thiophen-2-yl)methyl)-4-amino-N5-phenylisothiazole-3,5-dicarboxamide]	101.8% of control	66.8% of control	
CC(C)(C)C1CCc2c(sc(NC(=O)/C=C/C(=O)O)c2C#N)C1 (stereo not drawn) [(E)-3-(6-tert-butyl-3-cyano-4,5,6,7-tetrahydrobenzo[b]thiophen-2-ylcarbamoyl)acrylic acid]	88.2% of control	8.4% of control	
CCCCC/C=C\C/C=C\C/C=C\C/C=C\CCCC(=O)O [arachidonic acid, reference compound]			inhibition at 75 µM ([2]; 75 μM final concentration, read-out: inhibition of DDT (positive control)): ~50%
Oc1nc2cc(I)c(I)cc2o1 [5,6-diiodobenzo[d]oxazol-2-ol]	99.3% of control	56.1% of control	
CC(C)CC(C(=O)NC1CCCC1)N(C(=O)c1snc(C(N)=O)c1N)c1cccc(F)c1 (stereo not drawn) [N5-(1-(cyclopentylcarbamoyl)-3-methylbutyl)-4-amino-N5-(3-fluorophenyl)isothiazole-3,5-dicarboxamide]	105.2% of control	64.9% of control	
O=C1C=CC(=O)c2c(O)cccc21 [Juglone, 5-hydroxy-1,4-naphthalenedione]			Reduction in Melanin [3]: 32.8%; IC50 [2]: 14.9 µM
O=c1c(-c2cc(O)c(O)c(O)c2)coc2cc(O)c(O)c(O)c12 [Irigenol, 5,6,7-trihydroxy-3-(3,4,5-trihydroxyphenyl)-4H-1-benzopyran-4-one]			Reduction in Melanin [3]: 7.0%; IC50 [2]: 37.4 µM
CCc1ccc(O)cc1O [4-Ethyl Resorcinol, reference compound]		100% of control	Mushroom Tyrosinase (% of control) [4]: 42.3% of control; inhibition of mushroom tyrosinase (in words) [1]: potent inhibitor; activity in the DDT assay (in words) [2]: inactive
CCCC(C(=O)NC(C)(C)C)N(Cc1ccccc1Cl)C(=O)c1snc(C(N)=O)c1N (stereo not drawn) [N-5-(1-(tert-butylcarbamoyl)butyl)-N5-(2-chlorobenzyl)-4-aminoisothiazole-3,5-dicarboxamide]	102.5% of control	64.3% of control	
CC(C)(C)NC(=O)C(c1c[nH]c2ccccc12)N(C(=O)c1snc(C(N)=O)c1N)c1ccccc1 (stereo not drawn) [N5-((tert-butylcarbamoyl)(1H-indol-3-yl)methyl)-4-amino-N5-phenylisothiazole-3,5-dicarboxamide]	96.0% of control	40.9% of control	
CCOC(=O)c1c(NC(=O)/C=C/C(=O)O)sc2c1CCC(C(C)(C)CC)C2 (stereo not drawn) [(E)-3-(3-(ethoxycarbonyl)-6-tert-pentyl-4,5,6,7-tetrahydrobenzo[b]thiophen-2-ylcarbamoyl)acrylic acid]	90.8% of control	14.9% of control	
CCc1ccc(NC(=O)/C=C/C(=O)O)cc1 [(E)-3-(4-ethylphenylcarbamoyl)acrylic acid]	89.4% of control	40.5% of control	
CC(C)(C)NC(=O)C(c1ccc(F)cc1)N(Cc1ccccc1)C(=O)c1snc(C(N)=O)c1N (stereo not drawn) [N5-((tert-butylcarbamoyl)(4-fluorophenyl)methyl)-4-amino-N5-benzylisothiazole-3,5-dicarboxamide]	98.6% of control	69.9% of control	
O=C(O[C@@H]1Cc2c(O)cc(O)cc2O[C@@H]1c1cc(O)c(=O)c2c(O)c(O)cc([C@H]3Oc4cc(O)cc(O)c4C[C@H]3OC(=O)c3cc(O)c(O)c(O)c3)c2c1)c1cc(O)c(O)c(O)c1 [Theaflavin Digallate]			Reduction in Melanin [3]: 26.6%
CC(C)(C)NC(=O)C(c1ccc(F)cc1)N(C(=O)c1snc(C(N)=O)c1N)c1ccccc1 (stereo not drawn) [N5-((tert-butylcarbamoyl)(4-fluorophenyl)methyl)-4-amino-N5-phenylisothiazole-3,5-dicarboxamide]	101.9% of control	52.3% of control	
